*1 amine or outer side, *2 acyl side, *3 side chain or, on linkers, in order; H or OH if unused. Where a SMILES comes first, the peptide text is derived from it. Side-chain parts run from the residue outwards. The star is where a group is joined. C18 diacid = O=C(O)CCCCCCCCCCCCCCCCC(=O)*; γGlu = O=C(O)[C@H](CCC(=O)[*:2])N[*:1]; Isovaleryl = CC(C)CC(=O)*; AEEA = NCCOCCOCC(=O)O
Tests used:
normal NMRI mice = assay: Effect on acute food intake in normal NMRI mice; format: in vivo; details: male NMRI mice, 10 nmol/kg subcutaneously once
Outline: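 Male NMRI mice acclimatized in an HM-2 real-time food intake monitoring system, fasted 6 h before dark phase. Single subcutaneous dose of 10 nmol/kg peptide given 1 h before dark; n=7-8. Food intake expressed as % of vehicle group (50 mM phosphate pH7, 5% Mannitol).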

[1] = biological target: T1, Human Neuropeptide Y2 Receptor (Homo sapiens, UniProt P49146); assay: Radioligand binding competition assay (RLB); details: Table 3; human 125I-PYY (1-36) 0.02 nM, Y2 receptor membranes; read-out: Ki
T1 construct: purchased CHEMICON HTS066M
T1 sequence (P49146 1-381): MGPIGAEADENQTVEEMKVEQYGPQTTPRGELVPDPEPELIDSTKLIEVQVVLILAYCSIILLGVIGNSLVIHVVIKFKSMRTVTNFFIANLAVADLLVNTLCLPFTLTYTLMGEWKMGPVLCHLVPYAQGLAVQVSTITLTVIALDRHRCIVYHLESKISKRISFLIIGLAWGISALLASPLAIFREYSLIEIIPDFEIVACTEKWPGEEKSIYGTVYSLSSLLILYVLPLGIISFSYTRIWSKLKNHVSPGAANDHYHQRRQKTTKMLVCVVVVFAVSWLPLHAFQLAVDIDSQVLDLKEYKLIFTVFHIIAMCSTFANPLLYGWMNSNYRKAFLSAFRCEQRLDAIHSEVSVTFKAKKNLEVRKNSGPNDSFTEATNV
Outline: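 Filtration format; Y2R membrane prep 0.5 μg/well; buffer 50 mM HEPES/5 mM MgCl2/1 mM CaCl2/0.2% ovalbumin pH 7.4; 2 h RT, shaking. Harvest on PEI-soaked GF/C, ice-cold HEPES/500 mM NaCl washes, scintillation count. IC50 by nonlinear fit.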

| SMILES | Ki [1] | Acute Food Intake 24 h [% vehicle] (normal NMRI mice) |
| --- | --- | --- |
| CC(C)CC(=O)N[C@@H](C)C(=O)N1CCC[C@H]1C(=O)N[C@@H](CCC(=O)O)C(=O)N[C@@H](CCCCNC(=O)COCCOCCNC(=O)COCCOCCNC(=O)CC[C@H](NC(=O)CCCCCCCCCCCCCCCCC(=O)O)C(=O)O)C(=O)N1CCC[C@H]1C(=O)N[C@@H](CCC(=O)O)C(=O)N[C@@H](CCC(=O)O)C(=O)N[C@@H](CCC(=O)O)C(=O)N[C@@H](C)C(=O)N[C@@H](CO)C(=O)N1CCC[C@H]1C(=O)N[C@@H](CCC(=O)O)C(=O)N[C@@H](CCC(=O)O)C(=O)N[C@@H](CC(C)C)C(=O)N[C@@H](CCC(N)=O)C(=O)N[C@@H](CCCCN)C(=O)N[C@@H](Cc1ccc(O)cc1)C(=O)N[C@@H](Cc1ccc(O)cc1)C(=O)N[C@H](C(=O)N[C@@H](CO)C(=O)N[C@@H](CC(C)C)C(=O)N[C@@H](CCCNC(=N)N)C(=O)N[C@@H](Cc1c[nH]cn1)C(=O)N[C@@H](Cc1ccc(O)cc1)C(=O)N[C@@H](Cc1ccc(O)cc1)C(=O)N[C@@H](CC(N)=O)C(=O)N[C@@H](Cc1c[nH]c2ccccc12)C(=O)N[C@@H](CC(C)C)C(=O)N[C@H](C(=O)N[C@@H](CCCNC(=N)N)C(=O)N[C@@H](CCC(N)=O)C(=O)N[C@@H](CCCNC(=N)N)C(=O)N[C@@H](Cc1ccc(O)cc1)C(N)=O)[C@@H](C)O)C(C)C [Compound 205, N{alpha-4}-(3-methylbutanoyl)-N{epsilon-7}-[2-(2-{2-[2-(2-{2-[(4S)-4-carboxy-4-(17-carboxyheptadecanamido)butanamido]ethoxy}ethoxy)acetamido]ethoxy}ethoxy)acetamido]-[4A,7K,9E,11E,18Q,19K,22V,28Y,30W,31L]hPYY (4-36)] (Isovaleryl-APEK([AEEA-AEEA-γGlu-C18 diacid])PEEEASPEELQKYYVSLRHYYNWLTRQRY-NH2) | 1.9 nM | 65 % vehicle |
| CC(C)CC(=O)N[C@@H](C)C(=O)N1CCC[C@H]1C(=O)N[C@@H](CCC(=O)O)C(=O)N[C@@H](CCCCNC(=O)COCCOCCNC(=O)COCCOCCNC(=O)CC[C@H](NC(=O)CCCCCCCCCCCCCCCCC(=O)O)C(=O)O)C(=O)N1CCC[C@H]1C(=O)N[C@@H](CCC(=O)O)C(=O)N[C@@H](CCC(=O)O)C(=O)N[C@@H](CC(=O)O)C(=O)N[C@@H](C)C(=O)N[C@@H](CO)C(=O)N[C@@H](CCC(=O)O)C(=O)N[C@@H](CCC(=O)O)C(=O)N[C@@H](CCC(=O)O)C(=O)N[C@H](C(=O)N[C@@H](CCC(N)=O)C(=O)N[C@@H](CCCNC(=N)N)C(=O)N[C@@H](Cc1ccc(O)cc1)C(=O)N[C@@H](Cc1ccc(O)cc1)C(=O)N[C@H](C(=O)N[C@@H](CO)C(=O)N[C@@H](CC(C)C)C(=O)N[C@@H](CCCNC(=N)N)C(=O)N[C@@H](Cc1c[nH]cn1)C(=O)N[C@@H](Cc1ccc(O)cc1)C(=O)N[C@@H](Cc1ccc(O)cc1)C(=O)N[C@@H](CC(N)=O)C(=O)N[C@@H](Cc1c[nH]c2ccccc12)C(=O)N[C@@H](CC(C)C)C(=O)N[C@H](C(=O)N[C@@H](CCCNC(=N)N)C(=O)N[C@@H](CCC(N)=O)C(=O)N[C@@H](CCCNC(=N)N)C(=O)N[C@@H](Cc1ccc(O)cc1)C(N)=O)[C@@H](C)O)C(C)C)[C@@H](C)O [Compound 208, N{alpha-4}-(3-methylbutanoyl)-N{epsilon-7}-[2-(2-{2-[2-(2-{2-[(4S)-4-carboxy-4-(17-carboxyheptadecanamido)butanamido]ethoxy}ethoxy)acetamido]ethoxy}ethoxy)acetamido]-[4A,7K,9E,14E,17T,18Q,22V,28Y,30W,31L]hPYY (4-36)] | 3.8 nM | 61 % vehicle |
| CC[C@H](C)[C@H](NC(=O)[C@H](CCC(=O)O)NC(=O)[C@H](CCC(=O)O)NC(=O)[C@@H]1CCCN1C(=O)[C@H](CO)NC(=O)[C@H](C)NC(=O)[C@H](CCC(=O)O)NC(=O)[C@H](CCC(=O)O)NC(=O)[C@H](CCC(=O)O)NC(=O)[C@@H]1CCCN1C(=O)[C@H](CCCCNC(=O)COCCOCCNC(=O)COCCOCCNC(=O)CC[C@H](NC(=O)CCCCCCCCCCCCCCCCC(=O)O)C(=O)O)NC(=O)[C@H](CCC(=O)O)NC(=O)[C@@H]1CCCN1C(=O)[C@H](C)NC(=O)CC(C)C)C(=O)N[C@@H](CCC(N)=O)C(=O)N[C@@H](CCCNC(=N)N)C(=O)N[C@@H](Cc1ccc(O)cc1)C(=O)N[C@@H](Cc1ccc(O)cc1)C(=O)N[C@H](C(=O)N[C@@H](CO)C(=O)N[C@@H](CC(C)C)C(=O)N[C@@H](CCCNC(=N)N)C(=O)N[C@@H](Cc1c[nH]cn1)C(=O)N[C@@H](Cc1ccc(O)cc1)C(=O)N[C@@H](Cc1ccc(O)cc1)C(=O)N[C@@H](CC(N)=O)C(=O)N[C@@H](Cc1c[nH]c2ccccc12)C(=O)N[C@@H](CC(C)C)C(=O)N[C@H](C(=O)N[C@@H](CCCNC(=N)N)C(=O)N[C@@H](CCC(N)=O)C(=O)N[C@@H](CCCNC(=N)N)C(=O)N[C@@H](Cc1ccc(O)cc1)C(N)=O)[C@@H](C)O)C(C)C [Compound 241, N{alpha-4}-(3-methylbutanoyl)-N{epsilon-7}-[2-(2-{2-[2-(2-{2-[(4S)-4-carboxy-4-(17-carboxyheptadecanamido)butanamido]ethoxy}ethoxy)acetamido]ethoxy}ethoxy)acetamido]-[4A,7K,9E,11E,17I,18Q,22V,28Y,30W,31L]hPYY (4-36)] | 2.95 nM | 45 % vehicle |

Second part, led by results:

| Ki [1] | SMILES | Acute Food Intake 24 h [% vehicle] (normal NMRI mice) |
| --- | --- | --- |
| 8.07 nM | CC(C)CC(=O)N[C@@H](C)C(=O)N1CCC[C@H]1C(=O)N[C@@H](CCC(=O)O)C(=O)N[C@@H](CCCCNC(=O)COCCOCCNC(=O)COCCOCCNC(=O)CC[C@H](NC(=O)CCCCCCCCCCCCCCCCC(=O)O)C(=O)O)C(=O)N1CCC[C@H]1C(=O)N[C@@H](CCC(=O)O)C(=O)N[C@@H](CCC(=O)O)C(=O)N[C@@H](CC(=O)O)C(=O)N[C@@H](CO)C(=O)N[C@@H](CCC(=O)O)C(=O)N1CCC[C@H]1C(=O)N[C@@H](CCC(=O)O)C(=O)N[C@@H](CCC(=O)O)C(=O)N[C@@H](CC(C)C)C(=O)N[C@@H](CCC(N)=O)C(=O)N[C@@H](CCCNC(=N)N)C(=O)N[C@@H](Cc1ccc(O)cc1)C(=O)N[C@@H](Cc1ccc(O)cc1)C(=O)N[C@H](C(=O)N[C@@H](CO)C(=O)N[C@@H](CC(C)C)C(=O)N[C@@H](CCCNC(=N)N)C(=O)N[C@@H](Cc1c[nH]cn1)C(=O)N[C@@H](Cc1ccc(O)cc1)C(=O)N[C@@H](Cc1ccc(O)cc1)C(=O)N[C@@H](CC(N)=O)C(=O)N[C@@H](Cc1c[nH]c2ccccc12)C(=O)N[C@@H](CC(C)C)C(=O)N[C@H](C(=O)N[C@@H](CCCNC(=N)N)C(=O)N[C@@H](CCC(N)=O)C(=O)N[C@@H](CCCNC(=N)N)C(=O)N[C@@H](Cc1ccc(O)cc1)C(N)=O)[C@@H](C)O)C(C)C [Compound 209, N{alpha-4}-(3-methylbutanoyl)-N{epsilon-7}-[2-(2-{2-[2-(2-{2-[(4S)-4-carboxy-4-(17-carboxyheptadecanamido)butanamido]ethoxy}ethoxy)acetamido]ethoxy}ethoxy)acetamido]-[4A,7K,9E,12S,13E,18Q,22V,28Y,30W,31L]hPYY (4-36)] | 50 % vehicle |
| 1.84 nM | CC(C)CC(=O)N[C@@H](C)C(=O)N1CCC[C@H]1C(=O)N[C@@H](CCC(=O)O)C(=O)N[C@@H](CCCCNC(=O)COCCOCCNC(=O)COCCOCCNC(=O)CC[C@H](NC(=O)CCCCCCCCCCCCCCCCC(=O)O)C(=O)O)C(=O)N1CCC[C@H]1C(=O)N[C@@H](CCC(=O)O)C(=O)N[C@@H](CCC(=O)O)C(=O)N[C@@H](CC(=O)O)C(=O)N[C@@H](C)C(=O)N[C@@H](CCC(=O)O)C(=O)N1CCC[C@H]1C(=O)N[C@@H](C)C(=O)N[C@@H](CCC(=O)O)C(=O)N[C@@H](CC(C)C)C(=O)N[C@@H](CCC(N)=O)C(=O)N[C@@H](CCCNC(=N)N)C(=O)N[C@@H](Cc1ccc(O)cc1)C(=O)N[C@@H](Cc1ccc(O)cc1)C(=O)N[C@H](C(=O)N[C@@H](CO)C(=O)N[C@@H](CC(C)C)C(=O)N[C@@H](CCCNC(=N)N)C(=O)N[C@@H](Cc1c[nH]cn1)C(=O)N[C@@H](Cc1ccc(O)cc1)C(=O)N[C@@H](Cc1ccc(O)cc1)C(=O)N[C@@H](CC(N)=O)C(=O)N[C@@H](Cc1c[nH]c2ccccc12)C(=O)N[C@@H](CC(C)C)C(=O)N[C@H](C(=O)N[C@@H](CCCNC(=N)N)C(=O)N[C@@H](CCC(N)=O)C(=O)N[C@@H](CCCNC(=N)N)C(=O)N[C@@H](Cc1ccc(O)cc1)C(N)=O)[C@@H](C)O)C(C)C [Compound 244, N{alpha-4}-(3-methylbutanoyl)-N{epsilon-7}-[2-(2-{2-[2-(2-{2-[(4S)-4-carboxy-4-(17-carboxyheptadecanamido)butanamido]ethoxy}ethoxy)acetamido]ethoxy}ethoxy)acetamido]-[4A,7K,9E,13E,15A,18Q,22V,28Y,30W,31L]hPYY (4-36)] | 49 % vehicle |

From patent US12559529B2, “NPY2 receptor agonists” (Boehringer Ingelheim International GmbH, priority 2019, dated 2026)
